Source: US20250041272A1, “COMPOSITIONS AND METHODS FOR TREATING CANCER VIA PTP1B INHIBITION” (priority 2021, published 2025)

What was measured:
[1] = tested on: Stat1 phosphorylation and MyD88 in macrophages; experiment: Transwell co-culture of M1 induced macrophages with tumor cells plus inhibitors (Western blot, qRT-PCR); format: cell-based, mouse; details: 24 hours
Method: (§1) Peritoneal macrophage isolation and culture. Peritoneal macrophages were done as described previously(65) from 8-week-old C57BL/6J mice (randomized, both male and female). PBS (Gibco) was injected in the mural peritoneal cavity to release the macrophages. After recovering, cells were centrifuged at 1200 rpm for 5 minutes, resuspended in DMEM high glucose, 10% FBS, 1% penicillin-streptomycin (Gibco) and plated. 2 hours after the last step, cells were washed with PBS and maintained in DMEM/F12 supplemented with 10% FBS, 1% penicillin-streptomycin and 20 ng/ml of M-CSF (Prospec) for 2 days. Macrophages were treated for 24 hours with 50 ng/ml LPS (Sigma Millipore), 100 ng/ml IFNγ (BioLegend), 300 ng/ml PAM3CSK4 (InvivoGen), 107 cells/ml heat killed Listeria Monocytogenes (HKLM) (InvivoGen), 100 ng/ml Flagellin Salmonella typhimurium standard (InvivoGen), 10 ng/ml FSL1 (InvivoGen), 2.5 ug/ml ssRNA40 (InvivoGen), 2.5 ug/ml CL 075 (Tocris), 5 μM ODN1826, 50 μM Fludarabine (SelleckChem), 50 nM Momelotinib (SelleckChem), 5 μM BVT948 (Sigma Millipore), 200 μM PTP1b inhibitor III (Santa Cruz Biotechnology Inc.), 5 μM NSC87877 (Santa Cruz Biotechnology Inc.), 50 μM PTP1b inhibitor (Cayman), 1 mM PTP Inhibitor IV (Santa Cruz Biotechnology Inc.), 1 μM TSC401, 300 nM UNC2371 (SelleckChem), 300 nM BMS777607 (SelleckChem), 300 nM LDC1267 (SelleckChem) 1.5 μg/ml recombinant Pros1 (R&D systems), 200 ng/ml recombinant Gas6 (R&D systems) or 10-500 μM Cisplatin (Tocris). All components were added as described in the text. Cell culture. B16F10 (CRL-6475, ATCC), Lewis lung carcinoma (LLC) (CRL-1642, ATCC), KPC2713 (Yuliya Pylayeva-Gupta laboratory, UNC) and MDA-MB-231 (HTB-26, ATCC) were cultured in DMEM high glucose supplemented with 10% FBS, 1% penicillin-streptomycin (Gibco). […]

[2] = tested on: MyD88 expression in peritoneal macrophages; experiment: Individual TLR agonism of macrophages, MyD88 by qRT-PCR; format: cell-based, mouse; details: 24 hours
Method: (§2) Peritoneal macrophage isolation and culture. Peritoneal macrophages were done as described previously(65) from 8-week-old C57BL/6J mice (randomized, both male and female). PBS (Gibco) was injected in the mural peritoneal cavity to release the macrophages. After recovering, cells were centrifuged at 1200 rpm for 5 minutes, resuspended in DMEM high glucose, 10% FBS, 1% penicillin-streptomycin (Gibco) and plated. 2 hours after the last step, cells were washed with PBS and maintained in DMEM/F12 supplemented with 10% FBS, 1% penicillin-streptomycin and 20 ng/ml of M-CSF (Prospec) for 2 days. […]

[3] = tested on: Stat1 and MyD88 expression in pro-inflammatory macrophages; experiment: Stat1 or Jak1/2 inhibitor treatment of pro-inflammatory macrophages, qRT-PCR; format: cell-based, mouse; details: Fludarabine 50 μM, Momelotinib 50 nM
Method: as §2

[4] = tested on: macrophage MyD88 expression; experiment: Exogenous TAM ligand addition to pro-inflammatory macrophages, MyD88 qRT-PCR; format: cell-based, mouse; details: Pros1 1.5 ug/ml, Gas6 200 ng/ml, compared with transwell co-cultured B16F10 cells
Method: as §1

[5] = tested on: macrophage M1 associated gene expression; experiment: Cisplatin treated transwell co-culture of macrophages and B16F10 cells, qRT-PCR; format: cell-based, mouse
Method: Peritoneal macrophage isolation and culture. Peritoneal macrophages were done as described previously(65) from 8-week-old C57BL/6J mice (randomized, both male and female). PBS (Gibco) was injected in the mural peritoneal cavity to release the macrophages. After recovering, cells were centrifuged at 1200 rpm for 5 minutes, resuspended in DMEM high glucose, 10% FBS, 1% penicillin-streptomycin (Gibco) and plated. 2 hours after the last step, cells were washed with PBS and maintained in DMEM/F12 supplemented with 10% FBS, 1% penicillin-streptomycin and 20 ng/ml of M-CSF (Prospec) for 2 days. Macrophages were treated for 24 hours with 50 ng/ml LPS (Sigma Millipore), 100 ng/ml IFNγ (BioLegend), 300 ng/ml PAM3CSK4 (InvivoGen), 107 cells/ml heat killed Listeria Monocytogenes (HKLM) (InvivoGen), 100 ng/ml Flagellin Salmonella typhimurium standard (InvivoGen), 10 ng/ml FSL1 (InvivoGen), 2.5 ug/ml ssRNA40 (InvivoGen), 2.5 ug/ml CL 075 (Tocris), 5 μM ODN1826, 50 μM Fludarabine (SelleckChem), 50 nM Momelotinib (SelleckChem), 5 μM BVT948 (Sigma Millipore), 200 μM PTP1b inhibitor III (Santa Cruz Biotechnology Inc.), 5 μM NSC87877 (Santa Cruz Biotechnology Inc.), 50 μM PTP1b inhibitor (Cayman), 1 mM PTP Inhibitor IV (Santa Cruz Biotechnology Inc.), 1 μM TSC401, 300 nM UNC2371 (SelleckChem), 300 nM BMS777607 (SelleckChem), 300 nM LDC1267 (SelleckChem) 1.5 μg/ml recombinant Pros1 (R&D systems), 200 ng/ml recombinant Gas6 (R&D systems) or 10-500 μM Cisplatin (Tocris). All components were added as described in the text. Cell culture. B16F10 (CRL-6475, ATCC), Lewis lung carcinoma (LLC) (CRL-1642, ATCC), KPC2713 (Yuliya Pylayeva-Gupta laboratory, UNC) and MDA-MB-231 (HTB-26, ATCC) were cultured in DMEM high glucose supplemented with 10% FBS, 1% penicillin-streptomycin (Gibco). GEMM6 (Dr. Alisha Holtzhausen, UNC), KPPC4662 (Dr. Yuliya Pylayeva-Gupta laboratory, UNC), KPPC4548 (Yuliya Pylayeva-Gupta laboratory, UNC) and E0771 (CRL-3461, ATCC) were maintained in RPMI 1640 supplemented with […], 1% penicillin/streptomycin (Gibco) while PyMT cells were cultured in Ham's F-12K with 10% FBS, 1% penicillin-streptomycin (Gibco). Transwell assays were performed in 0.4 μm polyester membrane insert culture plates (Corning). 500,000 cells of each line were plated per well in DMEM/F12 supplemented with 10% FBS, 1% penicillin-streptomycin and 20 ng/ml of M-CSF for culture with mouse macrophages. SC cells (CRL-9855, ATCC) were cultured in IMDM with 10% FBS and 1% penicillin-streptomycin (Gibco). In transwell experiments with the SC cell line, cancer cells were also resuspended in IMDM media.
qRT-PCR. RNA was isolated using the RNeasy Plus Mini Kit (Quiagen) and cDNA was prepared using the Reverse Transcription System (Promega) with one-hour reverse transcription process. qRT-PCR was done using the PowerUp™ SYBR™ Green Master Mix (Applied Biosystems) on a QuantStudio Pro Real-time PCR system (Applied Biosystems) with a 95° C. pretreatment of 10 min, 50 cycles of 95° C., 10 sec and 60° C., 1 min and melt curve at the end. Analysis was performed with the 2^−ΔΔCT method(136).

LLC tumors = experiment: Subcutaneous LLC tumor model; format: in vivo, mouse; details: BVT948 10 mg/kg or Cisplatin 5 mg/kg intraperitoneal, treatment from 50 mm^3
Method: (§3) Tumor implantation, treatment and harvest. For animal studies, 1*10^5 B16F10 luciferase-tagged melanoma cells, 1*10^6 GEMM6 melanoma cells or 2*10^6 LCC cells were implanted subcutaneously into C57BL/6J mice (randomized, both males and females, 000664 The Jackson laboratory). When indicated, mice received intraperitoneal injections 7 days after implantation with 100 μl of 5 mg/kg cisplatin (Tocris), 100 μl of 10 mg/kg BVT948 (Tocris) or 100 μl of 30 mg/kg of vemurafenib. 5 mice were used per experimental group and tumors were harvested when they reached 1.5 cm in any direction.
(§4) Immunohistochemistry analysis. Immunohistochemistry assay was carried out in formalin-fixed, paraffin-embedded 4 μm sections using primary antibodies against F4:80 (AbD Serotec), CD11b (Abcam), CD4 (eBioscience) or CD8a (eBioscience) on a Discovery Ultra Automated IHC staining system (Ventana). Sections were then imaged using a ScanScope XT microscope (Aperio) and quantified using Aperio software.

B16F10 tumors = experiment: Subcutaneous B16F10 melanoma tumor model; format: in vivo, mouse; details: BVT948 10 mg/kg or Cisplatin 5 mg/kg intraperitoneal, treatment from 50 mm^3
Method: as §3, §4

O=S(=O)(O)c1ccc2cc(N=Nc3cc(S(=O)(=O)O)c4cccnc4c3O)ccc2c1 [NSC87877]
Stat1 phosphorylation at Tyrosine 701 and Serine 727 [1]: increased

Pam3CSK4
MyD88 expression upon individual TLR agonism [2]: upregulation of MyD88

N#CCNC(=O)c1ccc(-c2ccnc(Nc3ccc(N4CCOCC4)cc3)n2)cc1 [Momelotinib]
Stat1 expression [3]: did not significantly alter | MyD88 expression ([3]; compared with B16F10 transwell co-culture): did not significantly alter

CCc1oc2cc(S(=O)(=O)Nc3ccc(S(=O)(=O)Nc4nccs4)cc3)ccc2c1C(=O)c1cc(Br)c(O)c(Br)c1 [PTP inhibitor]
Stat1 phosphorylation at Tyrosine 701 and Serine 727 [1]: increased

FSL-1
MyD88 expression upon individual TLR agonism [2]: upregulation of MyD88

Pros1: recombinant murine Pros1, TAM family ligand (R&D systems)
macrophage MyD88 expression after exogenous ligand addition [4]: reduced comparably to that of tumor cell secretions | macrophage MyD88 expression after exogenous ligand addition ([4]; listed as Recombinant murine Pros1): suppresses macrophage MyD88 expression similarly to transwell co-culture with B16F10 cells

N.N.[Cl][Pt][Cl] [Cisplatin]
activation of Mer deficient macrophages ([5]; 25 μM Cisplatin, co-cultured with B16F10 tumor cells, no PTP1b inhibitor): macrophages could be activated even in the presence of tumor cells | M1 associated gene expression, Cisplatin alone ([5]; even at 500 μM Cisplatin, wildtype macrophages with B16F10 cells): did not lead to substantially increased M1 associated gene expression | M1 gene expression in MyD88 knockout macrophages ([5]; increasing Cisplatin, with or without BVT948): Neither increasing concentrations of Cisplatin, nor PTP1 b inhibition, were able to restore M1 gene expression | LLC tumor growth reduction, monotherapy (LLC tumors): 30% | B16F10 tumor growth, monotherapy vs vehicle (B16F10 tumors): did not significantly reduce

B1: Gas6: recombinant Gas6, TAM family ligand (R&D systems) (protein, UniProt Q14393 31-678, looked up)
Growth arrest-specific …: ALLPAREATQFLRPRQRRAFQVFEEAKQGHLERECVEELCSREEAREVFENDPETDYFYPRYLDCINKYGSPYTKNSGFATCVQNLPDQCTPNPCDRKGTQACQDLMGNFFCLCKAGWGGRLCDKDVNECSQENGGCLQICHNKPGSFHCSCHSGFELSSDGRTCQDIDECADSEACGEARCKNLPGSYSCLCDEGFAYSSQEKACRDVDECLQGRCEQVCVNSPGSYTCHCDGRGGLKLSQDMDTCEDILPCVPFSVAKSVKSLYLGRMFSGTPVIRLRFKRLQPTRLVAEFDFRTFDPEGILLFAGGHQDSTWIVLALRAGRLELQLRYNGVGRVTSSGPVINHGMWQTISVEELARNLVIKVNRDAVMKIAVAGDLFQPERGLYHLNLTVGGIPFHEKDLVQPINPRLDGCMRSWNWLNGEDTTIQETVKVNTRMQCFSVTERGSFYPGSGFAFYSLDYMRTPLDVGTESTWEVEVVAHIRPAADTGVLFALWAPDLRAVPLSVALVDYHSTKKLKKQLVVLAVEHTALALMEIKVCDGQEHVVTVSLRDGEATLEVDGTRGQSEVSAAQLQERLAVLERHLRSPVLTFAGGLPDVPVTSAPVTAFYRGCMTLEVNRRLLDLDEAAYKHSDITAHSCPPVEPAAA
macrophage MyD88 expression after exogenous ligand addition [4]: limited effect
